Patent US20260116910A1, “POLYCYCLIC COMPOUNDS AND METHODS THEREOF” (HEPAITECH (BEIJING) BIOPHARMA TECHNOLOGY CO., LTD., priority 2021, published 2026)

Columns and labels:
MRGPRX4 = MRGPRX4 (Homo sapiens, UniProt Q96LA9); assay: MRGPRX4 activation, Fluo-8 Ca2+ FLIPR assay in HEK293T cells stably expressing MRGPRX4; assay type: cell-based; design: key to MRGPRX4 activation, Average / MRGPRX4 activation, Ave.: fluorescence change dF/F0; settings: for EC50: MRGPRX4 activation, Ca2+ fluorescence, no activation in tested range reported as III, read-out: Activity (EC50 μM)
Procedure, shortened: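 Response measured as dF/F0: 30 s baseline, then 150 s after compound addition on FLIPR Tetra, in HHBS after 40-60 min room-temperature loading with 2 μM Fluo-8 AM.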

human FXR (NR1H4) = molecular target: T1, human FXR (NR1H4) (Homo sapiens, UniProt Q96RI1); assay: Human FXR (NR1H4) agonist assessment, FXRE-NanoLuc reporter in HEK293T cells; assay type: cell-based; settings: FXR activation, HEK293T FXRE-NanoLuc reporter, 24 hr; for EC50: read-out: EC50
T1 sequence (Q96RI1 1-476 isoform Q96RI1-1): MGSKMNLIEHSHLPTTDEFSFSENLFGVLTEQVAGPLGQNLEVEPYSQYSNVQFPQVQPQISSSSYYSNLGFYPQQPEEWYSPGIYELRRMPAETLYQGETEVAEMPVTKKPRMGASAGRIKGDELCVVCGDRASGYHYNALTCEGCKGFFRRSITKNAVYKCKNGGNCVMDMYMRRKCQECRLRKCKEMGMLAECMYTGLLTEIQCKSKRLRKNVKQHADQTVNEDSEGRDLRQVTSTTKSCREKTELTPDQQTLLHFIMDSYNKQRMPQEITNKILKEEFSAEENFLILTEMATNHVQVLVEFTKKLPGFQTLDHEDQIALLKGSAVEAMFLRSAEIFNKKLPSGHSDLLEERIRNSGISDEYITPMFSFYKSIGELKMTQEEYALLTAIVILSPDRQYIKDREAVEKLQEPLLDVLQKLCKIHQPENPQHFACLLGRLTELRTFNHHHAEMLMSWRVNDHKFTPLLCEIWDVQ
Procedure, shortened: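 Read-out was NanoLuc luminescence in culture medium, measured 5 min after adding coelenterazine. Cells were HEK293T stably carrying human FXR and an FXRE reporter, exposed to compound for 24 hr at 37 °C. Vehicle was 0.01% DMSO. EC50 was obtained from sigmoid fits of gradient dilutions.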

Sequence of MRGPRX4 (Q96LA9 whole entry): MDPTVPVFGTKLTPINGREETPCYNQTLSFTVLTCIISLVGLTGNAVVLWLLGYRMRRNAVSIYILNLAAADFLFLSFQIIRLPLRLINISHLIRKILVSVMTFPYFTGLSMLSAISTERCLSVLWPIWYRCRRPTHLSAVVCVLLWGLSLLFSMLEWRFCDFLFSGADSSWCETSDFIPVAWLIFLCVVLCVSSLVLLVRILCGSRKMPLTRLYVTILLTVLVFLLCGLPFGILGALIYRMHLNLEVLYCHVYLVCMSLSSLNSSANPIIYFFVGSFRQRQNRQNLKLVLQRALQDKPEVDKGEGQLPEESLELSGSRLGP

| SMILES | EC50 (MRGPRX4) | Activation (%) (MRGPRX4; second E3-8-1, 4.6 nM, n = 1) | Activation (%) (MRGPRX4; second E3-8-1, 4.6 nM, n = 2) | Activation (%) (MRGPRX4; second E3-8-1, 14 nM, n = 1) | Activation (%) (MRGPRX4; second E3-8-1, 14 nM, n = 2) | Activation (%) (MRGPRX4; second E3-8-1, 41 nM, n = 1) | Activation (%) (MRGPRX4; second E3-8-1, 41 nM, n = 2) | Activation (%) (MRGPRX4; second E3-8-1, 123 nM, n = 1) | Activation (%) (MRGPRX4; second E3-8-1, 123 nM, n = 2) | Activation (%) (MRGPRX4; second E3-8-1, 370 nM, n = 1) | Efficacy (maximum measured induction of NanoLuc, normalized to CDCA set as 100%) (human FXR (NR1H4)) | EC50 (human FXR (NR1H4)) | MRGPRX4 activation, fluorescence change (dF/F0), Average (MRGPRX4; Conc. (Log[M]) −4) | MRGPRX4 activation, fluorescence change (dF/F0), Average (MRGPRX4; Conc. (Log[M]) −4.5) | MRGPRX4 activation, fluorescence change (dF/F0), Average (MRGPRX4; Conc. (Log[M]) −5) | MRGPRX4 activation, fluorescence change (dF/F0), Average (MRGPRX4; Conc. (Log[M]) −5.5) | MRGPRX4 activation, fluorescence change (dF/F0), Average (MRGPRX4; Conc. (Log[M]) −6) | MRGPRX4 activation, fluorescence change (dF/F0), Average (MRGPRX4; Conc. (Log[M]) −7) | MRGPRX4 activation, fluorescence change (dF/F0), Average (MRGPRX4; Conc. (Log[M]) −8) | MRGPRX4 activation, fluorescence change (dF/F0), Average (MRGPRX4; Conc. (Log[M]) −9) | further results |
| --- | --- | --- | --- | --- | --- | --- | --- | --- | --- | --- | --- | --- | --- | --- | --- | --- | --- | --- | --- | --- | --- |
| CC[C@H]1[C@@H](O)[C@@H]2[C@H](CC[C@]3(C)[C@@H]([C@H](C)COC(=O)NS(=O)(=O)c4ccc5c(c4)CCC(C)(C)O5)CC[C@@H]23)[C@@]2(C)CCCC[C@@H]12 [18-2] | > 100 µM | 2.86% | 3.17% | 3.79% | 3.79% | 3.17% | 1.93% | 3.48% | 2.86% | 3.48% | A (efficacy >400%) | < 1 µM |  |  |  |  |  |  |  |  | Activation (%) (MRGPRX4; second E3-8-1, 370 nM, n = 2): 3.48%; Activation (%) (MRGPRX4; second E3-8-1, 1111 nM, n = 1): 2.24%; Activation (%) (MRGPRX4; second E3-8-1, 1111 nM, n = 2): 2.55%; Activation (%) (MRGPRX4; second E3-8-1, 3333 nM, n = 1): 3.17%; Activation (%) (MRGPRX4; second E3-8-1, 3333 nM, n = 2): 1.93%; Activation (%) (MRGPRX4; second E3-8-1, 10000 nM, n = 1): 3.48%; Activation (%) (MRGPRX4; second E3-8-1, 10000 nM, n = 2): 2.24%; Activation (%) (MRGPRX4; second E3-8-1, 30000 nM, n = 1): 4.10%; Activation (%) (MRGPRX4; second E3-8-1, 30000 nM, n = 2): 3.48% |
| CC[C@H]1[C@@H](O)[C@@H]2[C@H](CC[C@]3(C)[C@@H]([C@H](C)COC(=O)NS(=O)(=O)c4ccc(N5CCCCC5)nc4)CC[C@@H]23)[C@@]2(C)CCCC[C@@H]12 [18-3] | > 100 µM | 3.17% | 2.86% | 2.86% | 2.55% | 2.86% | 2.55% | 2.86% | 2.86% | 2.24% | A (efficacy >400%) | < 1 µM |  |  |  |  |  |  |  |  | MRGPRX4 activation, Average (MRGPRX4; E3-9, Conc. (Log[M]) −4.0): 0.519; MRGPRX4 activation, Average (MRGPRX4; E3-9, Conc. (Log[M]) −4.5): 0.027; MRGPRX4 activation, Average (MRGPRX4; E3-9, Conc. (Log[M]) −5.0): 0.021; MRGPRX4 activation, Average (MRGPRX4; E3-9, Conc. (Log[M]) −5.4): 0.018; MRGPRX4 activation, Average (MRGPRX4; E3-9, Conc. (Log[M]) −5.9): 0.018; Activation (%) (MRGPRX4; second E3-8-1, 370 nM, n = 2): 3.48%; Activation (%) (MRGPRX4; second E3-8-1, 1111 nM, n = 1): 2.55%; Activation (%) (MRGPRX4; second E3-8-1, 1111 nM, n = 2): 2.24%; Activation (%) (MRGPRX4; second E3-8-1, 3333 nM, n = 1): 3.17%; Activation (%) (MRGPRX4; second E3-8-1, 3333 nM, n = 2): 2.24%; Activation (%) (MRGPRX4; second E3-8-1, 10000 nM, n = 1): 2.24%; Activation (%) (MRGPRX4; second E3-8-1, 10000 nM, n = 2): 2.86%; Activation (%) (MRGPRX4; second E3-8-1, 30000 nM, n = 1): 1.63%; Activation (%) (MRGPRX4; second E3-8-1, 30000 nM, n = 2): 0.08% |
| CC[C@H]1[C@@H](O)[C@@H]2[C@H](CC[C@]3(C)[C@@H]([C@H](C)CNC(=O)NS(=O)(=O)c4ccc(C(C)(C)CF)cc4)CC[C@@H]23)[C@@]2(C)CCCC[C@@H]12 [20-1] | > 100 µM |  |  |  |  |  |  |  |  |  | A (efficacy >400%) | < 1 µM |  |  |  |  |  |  |  |  | MRGPRX4 activation, Average (MRGPRX4; E3-9, Conc. (Log[M]) −4.0): 0.018; MRGPRX4 activation, Average (MRGPRX4; E3-9, Conc. (Log[M]) −4.5): 0.016; MRGPRX4 activation, Average (MRGPRX4; E3-9, Conc. (Log[M]) −5.0): 0.019; MRGPRX4 activation, Average (MRGPRX4; E3-9, Conc. (Log[M]) −5.4): 0.019; MRGPRX4 activation, Average (MRGPRX4; E3-9, Conc. (Log[M]) −5.9): 0.021 |
| CC[C@H]1[C@@H](O)[C@@H]2[C@H](CC[C@]3(C)[C@@H]([C@H](C)CNC(=O)NS(=O)(=O)c4ccc5c(c4)CCC(C)(C)O5)CC[C@@H]23)[C@@]2(C)CCCC[C@@H]12 [20-2] | > 100 µM |  |  |  |  |  |  |  |  |  | B (300%<efficacy <=400%) | 1 to 10 µM |  |  |  |  |  |  |  |  | MRGPRX4 activation, Average (MRGPRX4; E3-9, Conc. (Log[M]) −4.0): 0.025; MRGPRX4 activation, Average (MRGPRX4; E3-9, Conc. (Log[M]) −4.5): 0.012; MRGPRX4 activation, Average (MRGPRX4; E3-9, Conc. (Log[M]) −5.0): 0.021; MRGPRX4 activation, Average (MRGPRX4; E3-9, Conc. (Log[M]) −5.4): 0.019; MRGPRX4 activation, Average (MRGPRX4; E3-9, Conc. (Log[M]) −5.9): 0.025 |
| CC[C@H]1[C@@H](O)[C@@H]2[C@H](CC[C@]3(C)[C@@H]([C@H](C)CNC(=O)NS(=O)(=O)c4ccc(N5CCCCC5)nc4)CC[C@@H]23)[C@@]2(C)CCCC[C@@H]12 [20-3] | > 100 µM | 3.48% | 2.86% | 3.48% | 3.79% | 3.48% | 3.48% | 3.17% | 3.79% | 3.17% | B (300%<efficacy <=400%) | 1 to 10 µM |  |  |  |  |  |  |  |  | Activation (%) (MRGPRX4; second E3-8-1, 370 nM, n = 2): 3.17%; Activation (%) (MRGPRX4; second E3-8-1, 1111 nM, n = 1): 3.79%; Activation (%) (MRGPRX4; second E3-8-1, 1111 nM, n = 2): 3.48%; Activation (%) (MRGPRX4; second E3-8-1, 3333 nM, n = 1): 2.55%; Activation (%) (MRGPRX4; second E3-8-1, 3333 nM, n = 2): 3.17%; Activation (%) (MRGPRX4; second E3-8-1, 10000 nM, n = 1): 2.55%; Activation (%) (MRGPRX4; second E3-8-1, 10000 nM, n = 2): 3.17%; Activation (%) (MRGPRX4; second E3-8-1, 30000 nM, n = 1): 1.63%; Activation (%) (MRGPRX4; second E3-8-1, 30000 nM, n = 2): 2.24% |
| C[C@H](CC(=O)O)[C@H]1CC[C@H]2[C@@H]3CC[C@@H]4C[C@H](O)CC[C@]4(C)[C@H]3C[C@H](O)[C@]12C [RC-1] | < 50 µM |  |  |  |  |  |  |  |  |  | B (300%<efficacy <=400%) | 1 to 10 µM | 0.329 | 0.080 | −0.029 | −0.019 | −0.015 | −0.010 | −0.003 | −0.005 |  |
| C[C@H](CCCC(=O)O)[C@H]1CC[C@H]2[C@@H]3CC[C@@H]4C[C@H](O)CC[C@]4(C)[C@H]3C[C@H](O)[C@]12C [RC-2] | < 50 µM |  |  |  |  |  |  |  |  |  | B (300%<efficacy <=400%) | 1 to 10 µM | 0.242 | 0.159 | 0.126 | 0.034 | 0.017 | −0.012 | −0.010 | −0.018 |  |
| C[C@]12CC[C@@H](O)C[C@H]1CC[C@@H]1[C@@H]2C[C@H](O)[C@]2(C)[C@@H](CCCCCC(=O)O)CC[C@@H]12 [RC-3] | < 50 µM |  |  |  |  |  |  |  |  |  | B (300%<efficacy <=400%) | 1 to 10 µM | 0.225 | 0.233 | 0.182 | 0.026 | −0.007 | −0.027 | −0.008 | −0.013 |  |
| C[C@H](CCC(=O)O)[C@H]1CC[C@H]2[C@@H]3CC[C@@H]4C[C@@H](O)CC[C@]4(C)[C@H]3C[C@H](O)[C@]12C [RC-5] |  |  |  |  |  |  |  |  |  |  | B (300%<efficacy <=400%) | 1 to 10 µM | 0.300 | 0.228 | 0.166 | 0.030 | −0.009 | −0.017 | −0.021 | −0.007 |  |
| C[C@H](CCC(=O)O)[C@H]1CC[C@H]2[C@@H]3CC[C@@H]4C[C@@H](O)CC[C@]4(C)[C@H]3C[C@@H](O)[C@]12C [RC-6] |  |  |  |  |  |  |  |  |  |  | B (300%<efficacy <=400%) | 1 to 10 µM | 0.259 | 0.208 | 0.145 | 0.009 | −0.013 | −0.007 | −0.015 | −0.008 |  |
